Experimental data: patent publication US12403132B2, “Methods of treating bone marrow failure syndromes and compositions for use in the same” (The Board of Trustees of the Leland Stanford Junior …, priority 2020, dated 2025)

Columns and labels:
[1] = Solubility; format: physicochemical; conditions: data not shown
[2] = tested on: BFU-E erythroid and CFU-GM myeloid colonies; assay: Colony assays in methylcellulose (BFU-E, CFU-GM); format: cell-based, human; conditions: metformin
Experimental: FIG. 9. Metformin improves expansion of CD235+ erythroblasts and BFU-E erythroid colony formation in human RPS19- and RPL11-insufficiency from CB CD34+ progenitors. (Panel A). CD34+ HSPCs were transduced with shRNA against control (shLuc), RPS19 (shRPS19) or RPL11 (shRPL11) and after sorting, were differentiated for 14 days in the presence or absence of 50 mM metformin. Cells were counted and the percentage expressing CD235+ erythroid (left) and CD11b+ myeloid (right) was determined by flow cytometry. Obtained values were multiplied to give an overall number that was normalized to the untreated control (grey columns). Values are presented as a percentage of the untreated control. (Panel B) Direct comparison between metformin treated and untreated cultures is facilitated by normalizing the metformin-treated values to the untreated values in control, RPS19- and RPL11-insufficient groups. Values are expressed as a fold induction relative to untreated. (Panel C) Transduced and sorted CD34+ progenitors were cultured in methylcellulose in the presence or absence of metformin for 16 days and BFU-E erythroid (left) and CFU-GM myeloid (right) colonies scored. Values are represented as the percentage of colonies induced in untreated controls (grey columns). (Panel D). To directly compare the effect of metformin in each group, metformin-treated cultures were normalized to untreated cultures and are expressed as a fold induction of the untreated control. (Panel E) Representative images of BFU-E colonies at day 14.Scale bar=[…]. […] Statistics: two-tailed Student's t test, significant *P<0.05
Sorted hematopoietic cells were seeded in methylcellulose medium containing IL-3, stem cell factor, granulocyte macrophage colony-stimulating factor, and erythropoietin (H4434; […] Technologies) in triplicate, with 1000 cells per plate. Erythroid (burst-forming unit erythroid) and myeloid (colony-forming unit, granulocyte-macrophage) colonies were counted 14-18 days later. In some cases, 3000 (shRPL11) or 5000 (shRPS19+TGFβ) cells per plate were added to ensure enough colonies for robust statistical analysis.
Sorted HSPCs were seeded in cytokine-containing methylcellulose medium (H4434; […] Technologies) in triplicate, with 1000 cells per plate. Erythroid (burst-forming unit erythroid) and myeloid (colony-forming unit, granulocyte-macrophage) colonies were counted 14-18 days later.

[3] = tested on: murine NLK 3′UTR; assay: Luciferase fused to murine NLK 3′UTR in K562 cells; format: cell-based, mouse; conditions: transient transfection in K562, metformin 72 hrs
[4] = tested on: NLK; assay: Endogenous NLK protein in K562 cells (Western blot); format: cell-based, human; conditions: K562, miRNA mimetics or metformin, 72 hrs
Experimental: FIG. 14. Metformin-mediated upregulation of miR-26a in human progenitors suppresses NLK expression. (Panel A) Human CD34+ (upper) and murine Lin-Kit+ (lower) progenitors were differentiated for 8 days in the presence or absence of metformin and the levels of indicated miRNAs were assessed by qRT-PCR. (Panel B) K562 cells stably expressing the luciferase gene coupled to the NLK 3′UTR were mock transfected, transfected with indicated miRNA mimetics, or treated with metformin, and cultured in the presence or absence of metformin for 72 hrs. After lysis, luciferase activity was determined and endogenous NLK and GAPDH protein expression was analyzed by Western blot. (Panel C) K562 cells were mock transfected, or transfected with either miR-34 or miR-26 sponges, prior to being left untreated or treated with metformin for 72 hrs. Lysed cells were subjected to luciferase assay and western blotting to examine NLK and GAPDH protein expression. […] Statistics: two-tailed Student's t test, significant *P<0.05
NLK kinase activity was performed as published (5). For Western blotting, antibodies against NLK (#AB97642; Abcam; 1:1000 dilution) and GAPDH (#MAB374; Millipore; 1:10000) were used according to manufacturer's instructions.

Row | SMILES | solubility [1] | fold increase of BFU-E colonies ([2]; RPL11-insufficiency) | BFU-E erythroid colonies, % of vector control (shLuc) ([2]; RPL11-insufficiency, 8.2% untreated) | fold increase of BFU-E colonies ([2]; RPS19-insufficiency) | BFU-E erythroid colonies, % of vector control (shLuc) ([2]; RPS19-insufficiency, 7.7% untreated) | size of BFU-E colonies ([2]; RPS19-insufficient progenitors) | effect on CFU-GM colonies [2] | decrease of luciferase activity, murine 3′UTR [3] | reduction of endogenous NLK protein expression [4]
1 | Fc1ccc(Cl)cc1-c1nc(Nc2ccncc2)c2nccnc2n1 [SD208] | poor solubility | – | – | – | – | – | – | – | –
2 | CN(C)C(=N)N=C(N)N [metformin] | – | 2.2 fold | 14.3% | 2.9 fold | 16.3% | only modestly improve | did not affect | 61.6% | 68.6%
